Assay results from US7064120B2, “Tricyclic pyridyl carboxamides and derivatives thereof tocolytic oxytocin receptor antagonists” (Wyeth, priority 2001, dated 2006).

Molecular target: T1, human vasopressin V1a receptor subtype (Homo sapiens, UniProt P37288)
T1 construct: host or cells: CHO cells, stably transfected (pZeoSV vector for the Thibonnier line)
Experiment: Vasopressin binding in CHO cell membranes expressing human vasopressin V1a subtype receptors ([3H]Manning ligand radioligand binding)
Settings: 100 nM
Method: Vasopressin Binding in Chinese Hamster Ovary Cell Membranes Expressing Human Vasopressin V1a Subtype Receptors
The trypsin is removed by aspiration and the cells dislodged by tapping. Cell Culture medium (e.g. 30 mL for 1:30 split) is immediately added and mixed well to inactivate trypsin. 1 mL of detached cells is added to new culture flasks containing fresh cell culture medium (e.g., into 25 mL per T-150 flask), and mixed gently. The cells are incubated at 37° C. in 5% CO2. The medium is changed at 3 to 4 days interval (or as appropriate). […] All steps are done under sterile conditions.
The cells are washed twice gently with Hank's Balanced Salt solution (e.g,. use 10 mL per T-150 flask). […] The contents are transferred to centrifuge tubes (50 mL) kept in an ice bath. All subsequent steps are done at 4° C. The tubes are centrifuged at 300×g for 15 min (1380 rpm on SORVAL, Model RT6000D, using the rotor for 50 mL tubes). The supernatant is discarded and the cells suspended in homogenizing buffer(10 mM Tris-HCl containing 0.25 M sucrose and 1 mM EDTA, pH 7.4) ensuring that the volume of the buffer is about ten times the volume of the cell pellet. The cells are pooled into a centrifuge tube (50 mL) and homogenized with Polytron at setting 6 for 10 sec. The homogenate is transferred into a Potter-Elvjehm homogenizer and homogenized with 3 strokes. The homogenate is centrifuged at 1500×g for 10 min at 4° C. (3100 rpm using SORVAL, model RT6000D, using the rotor for 50 mL tubes). The pellet is discarded. The supernatant is centrifuged at 100,000×g for 60 min. at 4° C. (Beckman L8-80M ultracentrifuge; spin at 37,500 rpm with rotor type 70 Ti for 50 mL tubes; 38,000 rpm with type 80Ti for 15 mL tubes; or 35,800 rpm with rotor type 45Ti). The supernantant is discarded and the pellet suspended in 3 to 4 mL of Tris buffer (50 mM TRIS-HCl, pH 7.4). The protein content is estimated by the Bradford or Lowry method. The volume of the membrane suspension is adjusted with the membrane buffer (50 mM Tris-HCl containing 0.1% BSA and 0.1 mM PMSF) to give 3.0 mg/mL (or as appropriate) of protein. The membranes are aliquoted and stored at −70° C.
In wells of a 96-well format microtiter plate, is added 90, 110 or 130 μL (to make up a final volume of 200 μL) of assay buffer containing 50 mM of Tris-HCl (pH 7.4), BSA (heat inactivated, protease-free), […], 1 mg % aprotinin, 1 mg % leupeptin, 2 mg % 1,10-phenanthroline, 10 mg % trypsin inhibitor, and 0.1 mM PMSF. The inhibitors are added on the day of the experiment. The components are mixed at room temperature, and then kept in ice bath following adjustment of the pH to 7.4. […] 20 μL of 50% DMSO is added for Manning and other peptide ligands and the assay buffer volume is adjusted accordingly. To each well is added 50 μL of frozen membrane suspension thawed immediately prior to use and diluted in the assay buffer to the required concentration (equivalent to 25 to 50 μg of protein/well as needed). 20 μL of 8 nM [^3H]Manning ligand in the assay buffer, prepared just before use, is added, and incubated at room temperature for 60 min. shaking the plate on a mechanical shaker for the first 15 min. The incubation is stopped by rapid filtration of the plate contents followed by wash with ice-cold buffer (50 mM Tris-HCl, pH 7.4) using a cell harvester (Tomtek and Printed filtermat-B filter paper). The filter paper is thoroughly dried (7–12 min. in a microwave oven) and impregnated with MeltiLex B/H melt-on scintillation wax sheets and the radioactivity counted in a betaplate scintillation counter.
Binding data is either reported as percent inhibition at a certain concentration or if an IC50 was calculated, as a nanomolar concentration.

T1 sequence (P37288 whole entry): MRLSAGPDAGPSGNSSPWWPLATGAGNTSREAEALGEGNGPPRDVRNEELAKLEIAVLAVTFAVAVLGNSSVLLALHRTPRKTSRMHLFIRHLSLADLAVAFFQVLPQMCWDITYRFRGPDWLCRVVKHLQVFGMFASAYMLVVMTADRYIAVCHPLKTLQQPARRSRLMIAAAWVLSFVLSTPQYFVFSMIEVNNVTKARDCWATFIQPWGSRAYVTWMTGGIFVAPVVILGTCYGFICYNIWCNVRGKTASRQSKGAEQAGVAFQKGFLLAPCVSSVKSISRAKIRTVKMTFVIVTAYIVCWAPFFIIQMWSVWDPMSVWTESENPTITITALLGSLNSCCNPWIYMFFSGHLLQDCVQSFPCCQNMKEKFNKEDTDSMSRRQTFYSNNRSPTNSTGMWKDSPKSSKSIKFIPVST

| SMILES | inhibition at 0.1 µM [%] |
| --- | --- |
| COc1cc(C(=O)N2Cc3ccc(C(=O)NCc4cccnc4)n3Cc3ccccc32)ccc1-c1cccc2ccccc12 [Example 44, 10-[3-Methoxy-4-(naphthalen-1-yl)benzoyl]-N-(3-pyridinylmethyl)-10,11-dihydro-5H-pyrrolo[2,1-c][1,4]benzodiazepine-3-carboxamide] | 11 |
| COc1ccccc1-c1ccc(C(=O)N2Cc3ccc(C(=O)NCc4cccnc4)n3Cc3ccccc32)cc1OC [Example 45, 10-[(2,2′-Dimethoxy-[1,1′-biphenyl]-4-yl)carbonyl]-N-(3-pyridinylmethyl)-10,11-dihydro-5H-pyrrolo[2,1-c][1,4]benzodiazepine-3-carboxamide] | 5 |
| COc1cccc(-c2ccc(C(=O)N3Cc4ccc(C(=O)NCc5cccnc5)n4Cc4ccccc43)cc2OC)c1 [Example 46, 10-[(2,3′-Dimethoxy-[1,1′-biphenyl]-4-yl)carbonyl]-N-(3-pyridinylmethyl)-10,11-dihydro-5H-pyrrolo[2,1-c][1,4]benzodiazepine-3-carboxamide] | 7 |
| O=C(NCc1cccnc1)c1ccc2n1Cc1ccccc1N(C(=O)c1ccc(-c3cccc4ccccc34)cc1Cl)C2 [Example 47, 10-[2-Chloro-4-(naphthalen-1-yl)benzoyl]-N-(3-pyridinylmethyl)-10,11-dihydro-5H-pyrrolo[2,1-c][1,4]benzodiazepine-3-carboxamide] | -1 |
| Cc1cc(C(=O)N2Cc3ccc(C(=O)NCc4cccnc4)n3Cc3ccccc32)ccc1-c1ccccc1C(F)(F)F [Example 48, 10-{[2-Methyl-2′-trifluoromethyl-[1,1′-biphenyl]-4-yl]carbonyl}-N-(3-pyridinylmethyl)-10,11-dihydro-5H-pyrrolo[2,1-c][1,4]benzodiazepine-3-carboxamide] | 0 |
| COc1ccccc1-c1ccc(C(=O)N2Cc3ccc(C(=O)NCCc4ccccn4)n3Cc3ccccc32)cc1C [Example 49, 10-[(2′-Methoxy-2-methyl-[1,1′-biphenyl]-4-yl)carbonyl]-N-[2-(2-pyridinyl)ethyl]-10,11-dihydro-5H-pyrrolo[2,1-c][1,4]benzodiazepine-3-carboxamide] | 1 |
| Cc1ccccc1-c1ccc(C(=O)N2Cc3ccc(C(=O)NCCc4ccccn4)n3Cc3ccccc32)cc1C [Example 50, 10-[(2,2′-Dimethyl-[1,1′-biphenyl]-4-yl)carbonyl]-N-[2-(2-pyridinyl)ethyl]-10,11-dihydro-5H-pyrrolo[2,1-c][1,4]benzodiazepine-3-carboxamide] | 26 |
| COc1cccc(-c2ccc(C(=O)N3Cc4ccc(C(=O)NCCc5ccccn5)n4Cc4ccccc43)cc2C)c1 [Example 51, 10-[(3′-Methoxy-2-methyl-[1,1′-biphenyl]-4-yl)carbonyl]-N-[2-(2-pyridinyl)ethyl]-10,11-dihydro-5H-pyrrolo[2,1-c][1,4]benzodiazepine-3-carboxamide] | 2 |
| COc1ccccc1-c1ccc(C(=O)N2Cc3ccc(C(=O)NCCc4ccccn4)n3Cc3ccccc32)cc1 [Example 52, 10-[(2′-Methoxy-[1,1′-biphenyl]-4-yl)carbonyl]-N-[2-(2-pyridinyl)ethyl]-10,11-dihydro-5H-pyrrolo[2,1-c][1,4]benzodiazepine-3-carboxamide] | 16 |
| Cc1ccccc1-c1ccc(C(=O)N2Cc3ccc(C(=O)NCCc4ccccn4)n3Cc3ccccc32)cc1 [Example 53, 10-[(2′-Methyl-[1,1′-biphenyl]-4-yl)carbonyl]-N-[2-(2-pyridinyl)ethyl]-10,11-dihydro-5H-pyrrolo[2,1-c][1,4]benzodiazepine-3-carboxamide] | 11 |
| COc1cc(C(=O)N2Cc3ccc(C(=O)NCCc4ccccn4)n3Cc3ccccc32)ccc1-c1ccccc1C [Example 54, 10-[(2-Methoxy-2′-methyl-[1,1′-biphenyl]-4-yl)carbonyl]-N-[2-(2-pyridinyl)ethyl]-10,11-dihydro-5H-pyrrolo[2,1-c][1,4]benzodiazepine-3-carboxamide] | 30 |
